Data reported in publication PMC12508156, “Non-canonical dihydrolipoyl transacetylase promotes chemotherapy resistance via mitochondrial tetrahydrofolate signaling” (Nature Communications, 2025).

Columns and labels:
KB-3-1 cells = details: read-out: cisplatin IC50; parental KB-3-1 cells; cited from earlier work
Description: The RNAi library contains 328 shRNA clones, and each gene was targeted by 2 ~ 8 clones (Fig. 1a). Eleven genes, including DLAT, were selected as unexplored lead hits with cisplatin-sensitizing potential and were further evaluated in A549^cisR, H1299, and KB-3-1^cisR, and two acetyltrans ...

NADPH = NADPH level (NADP/NADPH-Glo); type: cell-based, human
Procedure: Cellular metabolic states were examined through various assays. To gauge the levels of total intracellular or mitochondrial reactive oxygen species (ROS), cells were stained with CM-H2DCFDA or mitoSOX, respectively. Intracellular H2O2, NADPH, acetyl-CoA, and GSH/GSSG ratios were quantified using commercial assay kits as listed in the Reagents. Intracellular ATP levels were determined utilizing the ATP bioluminescent somatic cell assay and normalized to the total protein concentrations. The de novo synthesized RNA and proteins were assessed in cancer cells using commercial assays following the manufacturer’s protocols. In brief, O-propargyl-puromycin or uridine analog, 5-EU, was applied to stop translation or modify RNA. Polypeptides or modified RNA were measured using fluorescent azide with Ex/Em at 494/521 nm. PDC activity was determined by measuring the reduction of NAD+ to NADH during the conversion of pyruvate into acetyl-CoA. […]
A549cisR (a) and KB-3-1cisR (b) cells were transduced with control or […]
µg/ml; KB-3-1cisR: 5 µg/ml) for 24 h. The GSH/GSSG ratio and relative NADPH levels were measured using GSH/GSSG-Glo Assay and NADP/NADPH-Glo Assay, respectively. Error bars represent SD and are from 4 independent biological replicates for the upper panels of (a,b) and 3 for the lower panels of (a,b). P values were determined by one-way ANOVA.
(1 picture or pasted object on this page, not shown here)

For `N.N.[Cl][Pt][Cl]` [cisplatin], the IC50 (KB-3-1 cells) is listed as 8.4 µM, the NADPH (NADPH; A549cisR cells, pLKO.1, n=1) is listed as 0.7373 and the NADPH (NADPH; A549cisR cells, pLKO.1, n=2) is listed as 0.7802. The NADPH (NADPH; A549cisR cells, pLKO.1, n=3) was 0.7845, the NADPH (NADPH; A549cisR cells, shDLAT, n=1) was 0.3926 and the NADPH (NADPH; A549cisR cells, shDLAT, n=2) was 0.3967. The NADPH (NADPH; A549cisR cells, shDLAT, n=3) was 0.3159, the NADPH (NADPH; A549cisR, CTL, sheet Figure 5G, replicate n=1) was 0.971 and the NADPH (NADPH; A549cisR, CTL, sheet Figure 5G, replicate n=2) was 0.9727. For the same molecule, the NADPH (NADPH; A549cisR, CTL, sheet Figure 5G, replicate n=3) was 1.056, the NADPH (NADPH; A549cisR, shDLAT+Flag-MTHFD2 (K44Q), sheet Figure 5G, replicate n=1) was 1.569 and the NADPH (NADPH; A549cisR, shDLAT+Flag-MTHFD2 (K44Q), sheet Figure 5G, replicate n=2) was 1.336. For the same molecule, the NADPH (NADPH; A549cisR, shDLAT+Flag-MTHFD2 (K44Q), sheet Figure 5G, replicate n=3) was 1.475, the NADPH (NADPH; A549cisR, shDLAT+Flag-MTHFD2 (K44R), sheet Figure 5G, replicate n=1) was 0.5654 and the NADPH (NADPH; A549cisR, shDLAT+Flag-MTHFD2 (K44R), sheet Figure 5G, replicate n=2) was 0.5995. It also gave an NADPH (NADPH; A549cisR, shDLAT+Flag-MTHFD2 (K44R), sheet Figure 5G, replicate n=3) of 0.6728, an NADPH (NADPH; A549cisR, shDLAT, sheet Figure 5G, replicate n=1) of 0.5978 and an NADPH (NADPH; A549cisR, shDLAT, sheet Figure 5G, replicate n=2) of 0.6166. It also gave an NADPH (NADPH; A549cisR, shDLAT, sheet Figure 5G, replicate n=3) of 0.6336, an NADPH (NADPH; KB-3-1cisR cells, pLKO.1, n=1) of 0.8565 and an NADPH (NADPH; KB-3-1cisR cells, pLKO.1, n=2) of 0.8236. It also gave an NADPH (NADPH; KB-3-1cisR cells, pLKO.1, n=3) of 0.8268, an NADPH (NADPH; KB-3-1cisR cells, shDLAT, n=1) of 0.3931 and an NADPH (NADPH; KB-3-1cisR cells, shDLAT, n=2) of 0.4089. The NADPH (NADPH; KB-3-1cisR cells, shDLAT, n=3) was 0.429, the NADPH (NADPH; KB-3-1cisR, CTL, sheet Figure 5G, replicate n=1) was 0.9984 and the NADPH (NADPH; KB-3-1cisR, CTL, sheet Figure 5G, replicate n=2) was 0.9855. The NADPH (NADPH; KB-3-1cisR, CTL, sheet Figure 5G, replicate n=3) was 1.016, the NADPH (NADPH; KB-3-1cisR, shDLAT+Flag-MTHFD2 (K44Q), sheet Figure 5G, replicate n=1) was 1.788 and the NADPH (NADPH; KB-3-1cisR, shDLAT+Flag-MTHFD2 (K44Q), sheet Figure 5G, replicate n=2) was 1.788. For the same molecule, the NADPH (NADPH; KB-3-1cisR, shDLAT+Flag-MTHFD2 (K44Q), sheet Figure 5G, replicate n=3) was 1.859, the NADPH (NADPH; KB-3-1cisR, shDLAT+Flag-MTHFD2 (K44R), sheet Figure 5G, replicate n=1) was 0.4153 and the NADPH (NADPH; KB-3-1cisR, shDLAT+Flag-MTHFD2 (K44R), sheet Figure 5G, replicate n=2) was 0.3927. For the same molecule, the NADPH (NADPH; KB-3-1cisR, shDLAT+Flag-MTHFD2 (K44R), sheet Figure 5G, replicate n=3) was 0.4088, the NADPH (NADPH; KB-3-1cisR, shDLAT, sheet Figure 5G, replicate n=1) was 0.404 and the NADPH (NADPH; KB-3-1cisR, shDLAT, sheet Figure 5G, replicate n=2) was 0.4217. For the same molecule, the NADPH (NADPH; KB-3-1cisR, shDLAT, sheet Figure 5G, replicate n=3) was 0.4378.
